{
  "source": "the supplement of paper PMC9663587",
  "assay_in_all_cases": "area over the GR curve, 72 h; higher = more effect;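 also: Dye Drop or Deep Dye Drop imaging of viable cells in 384-well plates (Hoechst nuclei, LIVE/DEAD dye), nine half-log doses, GR normalized to DMSO controls and time-zero plates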",
  "key": {"[1]": {"test_system": "BT20"}, "[2]": {"test_system": "BT549"}, "[3]": {"test_system": "CAL120"}, "[4]": {"test_system": "CAL51"}, "[5]": {"test_system": "CAL851"}, "[6]": {"test_system": "CAMA1"}, "[7]": {"test_system": "HCC1143"}, "[8]": {"test_system": "HCC1395"}, "[9]": {"test_system": "HCC1419"}, "[10]": {"test_system": "HCC1428"}, "[11]": {"test_system": "HCC1500"}, "[12]": {"test_system": "HCC1806"}, "[13]": {"test_system": "HCC1937"}, "[14]": {"test_system": "HCC1954"}, "[15]": {"test_system": "HCC38"}, "[16]": {"test_system": "HCC70"}, "[17]": {"test_system": "HS578T"}, "[18]": {"test_system": "HTERT_HME1"}, "[19]": {"test_system": "MCF10A"}, "[20]": {"test_system": "MCF7"}, "[21]": {"test_system": "MDAMB157"}, "[22]": {"test_system": "MDAMB231"}, "[23]": {"test_system": "MDAMB361"}, "[24]": {"test_system": "MDAMB436"}, "[25]": {"test_system": "MDAMB453"}, "[26]": {"test_system": "MDAMB468"}, "[27]": {"test_system": "PDX1258"}, "[28]": {"test_system": "PDX1328"}, "[29]": {"test_system": "PDXHCI002"}, "[30]": {"test_system": "SKBR3"}, "[31]": {"test_system": "SUM1315"}, "[32]": {"test_system": "SUM149"}, "[33]": {"test_system": "SUM159"}, "[34]": {"test_system": "T47D"}},
  "data": [
    {"compound": "COc1cc([C@@H]2c3cc4c(cc3[C@@H](O[C@@H]3O[C@@H]5CO[C@@H](C)O[C@H]5[C@H](O)[C@H]3O)[C@H]3COC(=O)[C@H]23)OCO4)cc(OC)c1O", "note": "[Etoposide] (max 10 µM)", "values": [
      {"measurement": "area over the GR curve", "setting": "[1]", "value": 0.459, "unit": "GR"},
      {"measurement": "area over the GR curve", "setting": "[2]", "value": 0.473, "unit": "GR"},
      {"measurement": "area over the GR curve", "setting": "[3]", "value": 0.381, "unit": "GR"},
      {"measurement": "area over the GR curve", "setting": "[4]", "value": 0.467, "unit": "GR"},
      {"measurement": "area over the GR curve", "setting": "[5]", "value": 0.406, "unit": "GR"},
      {"measurement": "area over the GR curve", "setting": "[6]", "value": 0.571, "unit": "GR"},
      {"measurement": "area over the GR curve", "setting": "[7]", "value": 0.384, "unit": "GR"},
      {"measurement": "area over the GR curve", "setting": "[8]", "value": 0.389, "unit": "GR"},
      {"measurement": "area over the GR curve", "setting": "[9]", "value": 0.32, "unit": "GR"},
      {"measurement": "area over the GR curve", "setting": "[10]", "value": 0.39, "unit": "GR"},
      {"measurement": "area over the GR curve", "setting": "[11]", "value": 0.218, "unit": "GR"},
      {"measurement": "area over the GR curve", "setting": "[12]", "value": 0.648, "unit": "GR"},
      {"measurement": "area over the GR curve", "setting": "[13]", "value": 0.393, "unit": "GR"},
      {"measurement": "area over the GR curve", "setting": "[14]", "value": 0.501, "unit": "GR"},
      {"measurement": "area over the GR curve", "setting": "[15]", "value": 0.449, "unit": "GR"},
      {"measurement": "area over the GR curve", "setting": "[16]", "value": 0.454, "unit": "GR"},
      {"measurement": "area over the GR curve", "setting": "[17]", "value": 0.377, "unit": "GR"},
      {"measurement": "area over the GR curve", "setting": "[18]", "value": 0.542, "unit": "GR"},
      {"measurement": "area over the GR curve", "setting": "[19]", "value": 0.415, "unit": "GR"},
      {"measurement": "area over the GR curve", "setting": "[20]", "value": 0.499, "unit": "GR"},
      {"measurement": "area over the GR curve", "setting": "[21]", "value": 0.609, "unit": "GR"},
      {"measurement": "area over the GR curve", "setting": "[22]", "value": 0.298, "unit": "GR"},
      {"measurement": "area over the GR curve", "setting": "[23]", "value": 0.343, "unit": "GR"},
      {"measurement": "area over the GR curve", "setting": "[24]", "value": 0.434, "unit": "GR"},
      {"measurement": "area over the GR curve", "setting": "[25]", "value": 0.362, "unit": "GR"},
      {"measurement": "area over the GR curve", "setting": "[26]", "value": 0.429, "unit": "GR"},
      {"measurement": "area over the GR curve", "setting": "[27]", "value": 0.394, "unit": "GR"},
      {"measurement": "area over the GR curve", "setting": "[28]", "value": 0.35, "unit": "GR"},
      {"measurement": "area over the GR curve", "setting": "[29]", "value": 0.488, "unit": "GR"},
      {"measurement": "area over the GR curve", "setting": "[30]", "value": 0.403, "unit": "GR"},
      {"measurement": "area over the GR curve", "setting": "[31]", "value": 0.381, "unit": "GR"},
      {"measurement": "area over the GR curve", "setting": "[32]", "value": 0.527, "unit": "GR"},
      {"measurement": "area over the GR curve", "setting": "[33]", "value": 0.413, "unit": "GR"},
      {"measurement": "area over the GR curve", "setting": "[34]", "value": 0.666, "unit": "GR"}
    ]}
  ]
}
